# Experimental data published in US20220380370A1 (Goldfinch Bio, Inc., priority 2019, published 2022).
# Experiments:
# CB2 receptor = target: T1, CB2 receptor (Homo sapiens, UniProt P34972); assay: CB2 cAMP antagonist assay (LANCE Ultra cAMP kit); format: cell-based; settings: CB2-CHO cells stably expressing the CB2 receptor; forskolin and agonist CP55940 at EC90
# T1 construct: host or cells: CB2-CHO cells, stably expressing
# Description: (§1) LANCE Ultra cAMP kit (Perkin Elmer) was used to quantitate the amount of 3′,5′-cyclic adenosine monophosphate (cAMP) produced in Flp-In CHO cells (Invitrogen) stably expressing the CB1 receptor, CB1-CHO cells (Perkin Elmer) stably expressing the CB1 receptor, or CB2-CHO cells (Perkin Elmer) stably expressing the CB2 receptor.
# (§2) Forskolin was initially titrated to determine the response of the cells. The EC90 of forskolin was used for compound testing. CP55940 was titrated and used with EC90 of forskolin to determine the level of agonist stimulation. EC90 of the agonist was used for subsequent compound testing. For the CB1 assay, Forskolin (Sigma), CP55940 (Cayman Chemicals), and AM251 (MCE) were diluted in 100% DMSO, starting at 100 mM, 1 mM, and 1 mM respectively, in 3-fold serial dilutions. For the CB2 assay, Forskolin (Sigma), CP55940 (Cayman Chemicals), and AM630 (MCE) were diluted in 100% DMSO, starting at 100 mM, 1 mM, and 30 mM respectively, in 3-fold serial dilutions. Test compounds were diluted in 100% DMSO starting from 10 mM, 3-fold dilutions. The cAMP assay buffer contains 1× Hank's Buffered Saline Solution with Ca^2+ and Mg^2+ (Invitrogen), 5.3 mM HEPES (Invitrogen), 0.05% BSA, 0.5 mM IBMX (Sigma). For all assays, cells were harvested, counted, and diluted in cAMP assay buffer to 1×10^5 cells/mL. Only cells with viability >85% were used for the assay. Cells were seeded at 1000 cells/well in 384-well plates and 10 nL/well AM251 (for CB1), AM630 (for CB2) or test compound was added and incubated at 37° C. for 10 min. Then forskolin and agonist were added to reach their EC90 and incubated at 25° C. for 30 min. To detect the amount of cAMP produced, 5 μL of a 100× diluted stock of Eu-cAMP tracer and 5 μL of 200× diluted stock of Ulight-anti-cAMP were added to each well, and the plate incubated at 25° C. for 15 min. The FRET signal was read using an EnVision microplate reader (λex=320 nm, λem=615 nm and 665 nm). The results are expressed as % Inhibition, where % inhibition=100−100×(U−C2)/(C1−C2), where U is the FRET ratio (λem (665 nm)/λem (615 nm)) of sample, C1 is the average of the high controls (signal with no antagonist added), and C2 is the average of low controls (signal with the highest concentration of AM251 or AM630 antagonist). The IC50 is determined by fitting the percentage of inhibition as a function of compound concentrations with the Hill equation, using a 4-parameter fit in either XLfit or GraphPad Prism.
# CB1 receptor = target: T2, CB1 receptor (Homo sapiens, UniProt P21554); assay: CB1 cAMP antagonist assay (LANCE Ultra cAMP kit); format: cell-based; settings: CHO cells stably expressing the CB1 receptor; forskolin and agonist CP55940 at EC90
# T2 construct: Perkin Elmer (CB1-CHO cells); host or cells: Flp-In CHO cells or CB1-CHO cells, stably expressing
# T2 sequence (P21554 whole entry): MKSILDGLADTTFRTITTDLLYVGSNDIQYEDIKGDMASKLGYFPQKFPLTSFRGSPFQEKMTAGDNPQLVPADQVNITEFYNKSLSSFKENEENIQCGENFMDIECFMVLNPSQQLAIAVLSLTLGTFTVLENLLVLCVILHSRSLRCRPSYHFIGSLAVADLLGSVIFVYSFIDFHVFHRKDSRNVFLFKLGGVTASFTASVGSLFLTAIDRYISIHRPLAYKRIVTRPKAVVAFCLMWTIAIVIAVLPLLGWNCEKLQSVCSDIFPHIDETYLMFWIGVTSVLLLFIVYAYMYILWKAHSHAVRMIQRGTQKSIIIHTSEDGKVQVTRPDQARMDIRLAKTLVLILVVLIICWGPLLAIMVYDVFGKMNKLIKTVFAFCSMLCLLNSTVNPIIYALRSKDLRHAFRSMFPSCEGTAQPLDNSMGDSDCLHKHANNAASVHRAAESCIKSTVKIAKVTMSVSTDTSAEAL
# Description: as §1, §2
# T1 sequence (P34972 whole entry): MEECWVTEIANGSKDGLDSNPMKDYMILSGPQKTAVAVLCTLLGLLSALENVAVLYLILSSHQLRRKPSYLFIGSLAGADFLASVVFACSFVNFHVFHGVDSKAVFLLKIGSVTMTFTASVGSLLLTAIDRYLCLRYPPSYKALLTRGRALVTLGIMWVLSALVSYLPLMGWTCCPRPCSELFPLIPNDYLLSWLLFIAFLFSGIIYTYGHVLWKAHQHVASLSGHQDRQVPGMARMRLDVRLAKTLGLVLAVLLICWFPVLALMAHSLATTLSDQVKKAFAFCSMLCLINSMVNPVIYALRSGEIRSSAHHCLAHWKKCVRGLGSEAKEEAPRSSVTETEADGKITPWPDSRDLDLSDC
IC50 (CB2 receptor),IC50 (CB1 receptor),SMILES
≥ 5000 nM,< 100 nM,"CC(c1ccc(C(N)=O)cc1)n1c(=O)n(C[C@@H](O)CO)c(=O)c2c1nc(-c1ccccc1Cl)n2-c1ccc(Cl)cc1 (stereo in doubt) [Compound 150, 4-[(1S)-1-[8-(2-chlorophenyl)-7-(4-chlorophenyl)-1-[(2R)-2,3-dihydroxypropyl]-2,6-dioxopurin-3-yl]ethyl]benzamide]"
≥ 5000 nM,< 100 nM,O=c1[nH]c(=O)n(C2CCCCC2)c2nc(-c3ccccc3Cl)n(-c3ccc(Cl)cc3)c12 [Compound 100]
≥ 5000 nM,< 100 nM,COCCn1c(=O)c2c(nc(-c3ccccc3Cl)n2-c2ccc(Cl)cc2)n(C2CCCCC2)c1=O [Compound 101]
≥ 5000 nM,< 100 nM,Cn1c(=O)c2c(nc(-c3ccccc3Cl)n2-c2ccc(Cl)cc2)n(C2CCCCC2)c1=O [Compound 103]
≥ 5000 nM,< 100 nM,"O=c1c2c(nc(-c3ccccc3Cl)n2-c2ccc(Cl)cc2)n(C2CCCCC2)c(=O)n1CCO [Compound 104, 8-(2-chlorophenyl)-7-(4-chlorophenyl)-3-cyclohexyl-1-(2-hydroxyethyl)-2,3,6,7-tetrahydro-1H-purine-2,6-dione]"
≥ 5000 nM,< 100 nM,O=c1c2c(nc(-c3ccccc3Cl)n2-c2ccc(Cl)cc2)n(C2CCCCC2)c(=O)n1CCCO [Compound 105]
≥ 5000 nM,< 100 nM,NC(=O)Cn1c(=O)c2c(nc(-c3ccccc3Cl)n2-c2ccc(Cl)cc2)n(C2CCCCC2)c1=O [Compound 106]
≥ 5000 nM,< 100 nM,Cn1c(=O)c2c(nc(-c3ccccc3Cl)n2-c2ccc(Cl)cc2)n(Cc2ccc(C(=O)NCCO)cc2)c1=O [Compound 112]
≥ 5000 nM,< 100 nM,Cn1c(=O)c2c(nc(-c3ccccc3Cl)n2-c2ccc(Cl)cc2)n(Cc2ccc(C(N)=O)cc2)c1=O [Compound 114]
≥ 5000 nM,< 100 nM,"NC(=O)Cn1c(=O)c2c(nc(-c3ccccc3Cl)n2-c2ccc(Cl)cc2)n(CC2CCOCC2)c1=O [Compound 125, 2-[8-(2-chlorophenyl)-7-(4-chlorophenyl)-3-(oxan-4-ylmethyl)-2,6-dioxopurin-1-yl]acetamide]"
≥ 5000 nM,< 100 nM,C[C@H](c1ccc(C(=O)NCCO)cc1)n1c(=O)n(C)c(=O)c2c1nc(-c1ccccc1Cl)n2-c1ccc(Cl)cc1 [Compound 131]
≥ 5000 nM,< 100 nM,"NC(=O)c1ccc(Cn2c(=O)n(C[C@@H](O)CO)c(=O)c3c2nc(-c2ccccc2Cl)n3-c2ccc(Cl)cc2)cc1 [Compound 132, 4-[[8-(2-chlorophenyl)-7-(4-chlorophenyl)-1-[(2R)-2,3-dihydroxypropyl]-2,6-dioxopurin-3-yl]methyl]benzamide]"
≥ 5000 nM,< 100 nM,"Cn1c(=O)c2c(nc(-c3ccccc3Cl)n2-c2ccc(Cl)cc2)n(Cc2ccc(S(N)(=O)=O)cc2)c1=O [Compound 135, 4-[[8-(2-chlorophenyl)-7-(4-chlorophenyl)-1-methyl-2,6-dioxopurin-3-yl]methyl]benzenesulfonamide]"
,< 100 nM,"CS(=O)(=O)c1ccc(Cn2c(=O)n(CC(N)=O)c(=O)c3c2nc(-c2ccccc2Cl)n3-c2ccc(Cl)cc2)cc1 [Compound 155, 2-[8-(2-chlorophenyl)-7-(4-chlorophenyl)-3-[(4-methanesulfonylphenyl)methyl]-2,6-dioxopurin-1-yl]acetamide]"
,< 100 nM,"CS(=N)(=O)c1ccc(Cn2c(=O)n(CC(N)=O)c(=O)c3c2nc(-c2ccccc2Cl)n3-c2ccc(Cl)cc2)cc1 (stereo not shown) [Compound 156, 2-[8-(2-chlorophenyl)-7-(4-chlorophenyl)-3-([4-[imino(methyl)oxo-lambda6-sulfanyl]phenyl]methyl)-2,6-dioxopurin-1-yl]acetamide]"
,< 100 nM,NC(=O)Cn1c(=O)c2c(nc(-c3ccccc3Cl)n2-c2ccc(Cl)cc2)n(CC2(F)CCOCC2)c1=O [Compound 157]
,< 100 nM,CS(=O)(=O)N1CCC(Cn2c(=O)n(CC(N)=O)c(=O)c3c2nc(-c2ccccc2Cl)n3-c2ccc(Cl)cc2)CC1 [Compound 158]

IC50 (CB2 receptor),IC50 (CB1 receptor),SMILES
,< 100 nM,C[C@@H](CO)NC(=O)c1ccc(Cn2c(=O)n(C)c(=O)c3c2nc(-c2ccccc2Cl)n3-c2ccc(Cl)cc2)nc1 [Compound 160]
,< 100 nM,C[C@H](CO)NC(=O)c1ccc(Cn2c(=O)n(C)c(=O)c3c2nc(-c2ccccc2Cl)n3-c2ccc(Cl)cc2)nc1 [Compound 161]
,< 100 nM,Cn1c(=O)c2c(nc(-c3ccccc3Cl)n2-c2ccc(Cl)cc2)n(Cc2ccc(C(=O)NCC3(O)CC3)cn2)c1=O [Compound 162]
,1000 to 5000 nM,"NC(=O)Cn1c(=O)c2c(nc(-c3ncccc3Cl)n2-c2ccc(Cl)cc2)n(CC2CCS(=O)(=O)CC2)c1=O [Compound 163, 2-[7-(4-chlorophenyl)-8-(3-chloropyridin-2-yl)-3-[(1,1-dioxo-1λ^6-thian-4-yl)methyl]-2,6-dioxopurin-1-yl]acetamide]"
,< 100 nM,Cn1c(=O)c2c(nc(-c3ccccc3Cl)n2-c2ccc(Cl)cc2)n(Cc2ccc(C(=O)NCC(C)(C)O)cn2)c1=O [Compound 166]
,< 100 nM,Cn1c(=O)c2c(nc(-c3ccccc3Cl)n2-c2ccc(Cl)cc2)n(Cc2ccc(C(=O)NC3CCOC3)cn2)c1=O (stereo not shown) [Compound 167]
,< 100 nM,"NC(=O)Cn1c(=O)c2c(nc(-c3ccccc3Cl)n2-c2ccc(Cl)cc2)n(CC2(O)CCOCC2)c1=O [Compound 168, 2-[8-(2-chlorophenyl)-7-(4-chlorophenyl)-3-[(4-hydroxyoxan-4-yl)methyl]-2,6-dioxopurin-1-yl]acetamide]"
,< 100 nM,"NS(=O)(=O)Cn1c(=O)c2c(nc(-c3ccccc3Cl)n2-c2ccc(Cl)cc2)n(Cc2ccc(Cl)cn2)c1=O [Compound 169, [8-(2-chlorophenyl)-7-(4-chlorophenyl)-3-[(5-chloropyridin-2-yl)methyl]-2,6-dioxopurin-1-yl]methanesulfonamide]"
,100 to 1000 nM,"NC(=O)Cn1c(=O)c2c(nc(-c3ccc(F)cc3F)n2-c2ccc(Cl)cc2)n(CC2CCS(=O)(=O)CC2)c1=O [Compound 172, 2-[7-(4-chlorophenyl)-8-(2,4-difluorophenyl)-3-[(1,1-dioxo-1λ^6-thian-4-yl)methyl]-2,6-dioxopurin-1-yl]acetamide]"
,< 100 nM,NC(=O)Cn1c(=O)c2c(nc(-c3ccc(F)cc3Cl)n2-c2ccc(Cl)cc2)n(CC2CCS(=O)(=O)CC2)c1=O [Compound 173]
,< 100 nM,"C[C@@H](Cn1c(=O)c2c(nc(-c3ccccc3Cl)n2-c2ccc(Cl)cc2)n(CC2CCS(=O)(=O)CC2)c1=O)C(N)=O [Compound 174, (2S)-3-[8-(2-chlorophenyl)-7-(4-chlorophenyl)-3-[(1,1-dioxo-1λ^6-thian-4-yl)methyl]-2,6-dioxopurin-1-yl]-2-methylpropanamide]"
,< 100 nM,C[C@H](Cn1c(=O)c2c(nc(-c3ccccc3Cl)n2-c2ccc(Cl)cc2)n(CC2CCS(=O)(=O)CC2)c1=O)C(N)=O [Compound 175]
,< 100 nM,"C[C@@H](c1ccc(S(N)(=O)=O)cn1)n1c(=O)n(C)c(=O)c2c1nc(-c1ccccc1Cl)n2-c1ccc(Cl)cc1 [Compound 179, 6-[(1S)-1-[8-(2-chlorophenyl)-7-(4-chlorophenyl)-1-methyl-2,6-dioxopurin-3-yl]ethyl]pyridine-3-sulfonamide]"
,< 100 nM,"C[C@H](c1ccc(S(N)(=O)=O)cn1)n1c(=O)n(C)c(=O)c2c1nc(-c1ccccc1Cl)n2-c1ccc(Cl)cc1 [Compound 180, 6-[(1R)-1-[8-(2-chlorophenyl)-7-(4-chlorophenyl)-1-methyl-2,6-dioxopurin-3-yl]ethyl]pyridine-3-sulfonamide]"
,< 100 nM,Cn1nccc1-c1nc2c(c(=O)n(C)c(=O)n2Cc2ccc(S(N)(=O)=O)cc2)n1-c1ccc(Cl)cc1 [Compound 181]
,100 to 1000 nM,"Cn1nccc1-c1nc2c(c(=O)n(C)c(=O)n2Cc2ccc(S(N)(=O)=O)cn2)n1-c1ccc(Cl)cc1 [Compound 182, 6-[[7-(4-chlorophenyl)-1-methyl-8-(2-methylpyrazol-3-yl)-2,6-dioxopurin-3-yl]methyl]pyridine-3-sulfonamide]"
